The target in one test is T1, AuroraA-TPX2 (Homo sapiens, UniProt O14965).
T1 construct: 20 μL of AuroraA-TPX2 KD GST for a final volume of about 41 μL; GST
T1 sequence (O14965 133-383 limits assumed): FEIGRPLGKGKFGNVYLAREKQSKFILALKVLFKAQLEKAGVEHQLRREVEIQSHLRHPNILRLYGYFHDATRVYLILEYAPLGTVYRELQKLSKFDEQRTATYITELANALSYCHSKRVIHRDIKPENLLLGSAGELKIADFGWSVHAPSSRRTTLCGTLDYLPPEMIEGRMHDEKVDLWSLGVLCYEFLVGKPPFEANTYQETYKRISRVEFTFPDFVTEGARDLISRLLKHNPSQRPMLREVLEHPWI
T1 sequence (Q9ULW0 1-43 partner limits assumed): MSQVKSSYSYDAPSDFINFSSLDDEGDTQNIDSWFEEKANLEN
Briefly: AuroraA-TPX2 Homogeneous Time Resolved Fluorescent (HTRF) kinase assay. The test is classed as biochemical. The conditions noted are these: average; read-out: AurA_IC50_IP (uM Avg). In short, it runs like this:
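HTRF read-out (Eu 615 nm to APC 655 nm) of phosphorylated biotin-PLK, detected with 0.02 nM europium anti-phosphoPLK antibody and 0.0005 mg/mL SA-APC after overnight equilibration.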
(In general: TR-FRET usually uses a lanthanide donor and a delayed reading to cut background.)

In a further test the target is T2, AuroraB (Homo sapiens, UniProt Q96GD4).
T2 construct: 20 μL of AuroraB FL H is for a final volume of 41 μL; His
Kind of test: AuroraB Homogeneous Time Resolved Fluorescent (HTRF) kinase assay. The class given is biochemical. Conditions: average; read-out: AurB_IC50_IP (uM Avg). The procedure, abridged:
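Full-length His-tagged kinase phosphorylates biotinylated Histone H3 (0.1 μM final) with ATP in pH 7.5 HEPES containing MgCl, MnCl, DTT and BSA for about 90 min. EDTA-containing detection mix with SA-APC and Eu-anti-phosphoHistone H3 then equilibrated about 60 min; HTRF read with 320 nm excitation, emissions 615/655 nm.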

T2 sequence (Q96GD4 whole entry): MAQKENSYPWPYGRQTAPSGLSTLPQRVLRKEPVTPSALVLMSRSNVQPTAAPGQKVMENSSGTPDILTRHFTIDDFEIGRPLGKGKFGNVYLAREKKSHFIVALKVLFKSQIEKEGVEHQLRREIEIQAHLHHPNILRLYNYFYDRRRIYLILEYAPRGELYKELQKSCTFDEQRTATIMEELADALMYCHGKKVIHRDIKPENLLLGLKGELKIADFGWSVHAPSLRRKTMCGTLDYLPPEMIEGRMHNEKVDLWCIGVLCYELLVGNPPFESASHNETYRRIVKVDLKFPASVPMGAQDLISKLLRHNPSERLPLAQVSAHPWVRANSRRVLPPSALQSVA

For `CCCc1cc(-c2ccccc2)nnc1Nc1ccc(Oc2ccnc3cc(OC)cnc23)cc1` [compound 156, N-(4-((7-(methyloxy)-1,5-naphthyridin-4-yl)oxy)phenyl)-6-phenyl-4-propyl-3-pyridazinamine], the IC50 stood at 0.047 µM at AuroraA-TPX2 and 0.005 µM at AuroraB.

Regarding `COc1cnc2c(Oc3ccc(Nc4nnc(-c5ccc6c(c5)OCCN6C)c5ccccc45)cc3)ccnc2c1` [compound 157, 4-(4-methyl-3,4-dihydro-2H-1,4-benzoxazin-7-yl)-N-(4-((7-(methyloxy)-1,5-naphthyridin-4-yl)oxy)phenyl)-1-phthalazinamine], the IC50 worked out at 0.012 µM on AuroraA-TPX2 and 0.005 µM at AuroraB.

With `COc1cnc2c(Oc3ccc(Nc4nnc(-c5ccc(OC)nc5)c5ccccc45)cc3)ccnc2c1` [compound 158, N-(4-((7-(methyloxy)-1,5-naphthyridin-4-yl)oxy)phenyl)-4-(6-(methyloxy)-3-pyridinyl)-1-phthalazinamine], the figures for the IC50 on AuroraA-TPX2 and on AuroraB were 0.037 µM and 0.005 µM, respectively.

On to `COc1cnc2c(Oc3ccc(Nc4nnc(-c5ccc6occc6c5)c5ccccc45)cc3)ccnc2c1` [compound 159, 4-(1-benzofuran-5-yl)-N-(4-((7-(methyloxy)-1,5-naphthyridin-4-yl)oxy)phenyl)-1-phthalazinamine], for which the IC50 at AuroraA-TPX2 stood at 0.01 µM; on AuroraB it was 0.007 µM.

As to `Cc1ccc(-c2nnc(Nc3ccc(Oc4ccnc5ccccc45)c(F)c3)c3ccccc23)cc1` [compound 161, N-(3-fluoro-4-(4-quinolinyloxy)phenyl)-4-(4-methylphenyl)-1-phthalazinamine], the IC50 was 0.027 µM at AuroraA-TPX2 and 0.005 µM at AuroraB.

On to `Cc1ccc(-c2nnc(Nc3ccc(Oc4ccnc5cc(C#N)ccc45)cc3)c3ccccc23)s1` [compound 162, 4-((4-((4-(5-methyl-2-thienyl)-1-phthalazinyl)amino)phenyl)oxy)-7-quinolinecarbonitrile], for which the IC50 on AuroraA-TPX2 was 0.012 µM; on AuroraB, 0.004 µM.

In the case of `COc1cnc2c(Oc3ccc(Nc4nnc(-c5ccc(OC(F)(F)F)cc5)c5ccccc45)cc3)ccnc2c1` [compound 163, N-(4-((7-(methyloxy)-1,5-naphthyridin-4-yl)oxy)phenyl)-4-(4-((trifluoromethyl)oxy)phenyl)-1-phthalazinamine], the IC50 on AuroraA-TPX2 was found to be 0.072 µM; on AuroraB, 0.009 µM.

As for `COc1ccc2c(Oc3ccc(Nc4nnc(-c5ccccc5)c5ccccc45)cc3)c(F)cnc2c1` [compound 164, N-(4-((3-fluoro-7-(methyloxy)-4-quinolinyl)oxy)phenyl)-4-phenyl-1-phthalazinamine], the IC50 came to 0.04 µM on AuroraA-TPX2 and 0.003 µM at AuroraB.

Regarding `COc1cnc2c(Oc3ccc(Nc4nnc(-c5ccc6c(c5)OCCO6)c5ccccc45)cc3)ccnc2c1` [compound 166, 4-(2,3-dihydro-1,4-benzodioxin-6-yl)-N-(4-((7-(methyloxy)-1,5-naphthyridin-4-yl)oxy)phenyl)-1-phthalazinamine], the IC50 on AuroraA-TPX2 worked out at 0.023 µM; on AuroraB it was 0.006 µM.

Consider `COc1cnc2c(Oc3ccc(Nc4nnc(-c5ccc6[nH]ccc6c5)c5ccccc45)cc3)ccnc2c1` [compound 167, 4-(1H-indol-5-yl)-N-(4-((7-(methyloxy)-1,5-naphthyridin-4-yl)oxy)phenyl)-1-phthalazinamine], for which the IC50 turned out to be 0.013 µM on AuroraA-TPX2 and 0.004 µM at AuroraB.

For the molecule `COc1cnc2c(Oc3ccc(Nc4nnc(-c5ccc6c(c5)CCO6)c5ccccc45)cc3)ccnc2c1` [compound 168, 4-(2,3-dihydro-1-benzofuran-5-yl)-N-(4-((7-(methyloxy)-1,5-naphthyridin-4-yl)oxy)phenyl)-1-phthalazinamine], the IC50 at AuroraA-TPX2 was 0.008 µM; on AuroraB, 0.005 µM.

As for `COc1cnc2c(Oc3ccc(Nc4nnc(-c5csc6ccccc56)c5ccccc45)cc3)ccnc2c1` [compound 169, 4-(1-benzothien-3-yl)-N-(4-((7-(methyloxy)-1,5-naphthyridin-4-yl)oxy)phenyl)-1-phthalazinamine], the figures for the IC50 at AuroraA-TPX2 and on AuroraB were 0.01 µM and 0.009 µM, respectively.

Turning to `Cc1csc(-c2nnc(Nc3ccc(Oc4ccnc5cc(C#N)ccc45)cc3)c3ccccc23)c1` [compound 170, 4-((4-((4-(4-methyl-2-thienyl)-1-phthalazinyl)amino)phenyl)oxy)-7-quinolinecarbonitrile], the results for the IC50 on AuroraA-TPX2 and on AuroraB were 0.016 µM and 0.009 µM, respectively.

Regarding `COc1cnc2c(Oc3ccc(Nc4nnc(-c5cc6ccccc6s5)c5ccccc45)cc3)ccnc2c1` [compound 171, 4-(1-benzothien-2-yl)-N-(4-((7-(methyloxy)-1,5-naphthyridin-4-yl)oxy)phenyl)-1-phthalazinamine], the values for the IC50 at AuroraA-TPX2 and on AuroraB were 0.013 µM and 0.015 µM, respectively.

In the case of `COc1cnc2c(Oc3ccc(Nc4nnc(-c5ccc(C(F)(F)F)c(Cl)c5)c5ccccc45)cc3)ccnc2c1` [compound 172, 4-(3-chloro-4-(trifluoromethyl)phenyl)-N-(4-((7-(methyloxy)-1,5-naphthyridin-4-yl)oxy)phenyl)-1-phthalazinamine], the IC50 at AuroraA-TPX2 was found to be 0.039 µM; on AuroraB, 0.017 µM.

`COc1cnc2c(Oc3ccc(Nc4nnc(N5CC[C@H]6CCCC[C@H]6C5)c5ccccc45)cc3)ccnc2c1` [compound 173, N-(4-((7-(methyloxy)-1,5-naphthyridin-4-yl)oxy)phenyl)-4-((4aR,8aR)-octahydro-2(1H)-isoquinolinyl)-1-phthalazinamine]: the IC50 at AuroraA-TPX2 and at AuroraB was 0.019 µM in each case.

For `CCOc1nc(-c2nnc(Nc3ccc(Oc4ccnc5cc(OC)cnc45)cc3)c3ccccc23)cs1` [compound 175, 4-(2-(ethyloxy)-1,3-thiazol-4-yl)-N-(4-((7-(methyloxy)-1,5-naphthyridin-4-yl)oxy)phenyl)-1-phthalazinamine], the IC50 amounted to 0.013 µM on AuroraA-TPX2 and 0.003 µM on AuroraB.

As for `COc1cnc2c(Oc3ccc(Nc4nnc(-c5cc6ccccc6o5)c5ccccc45)cc3)ccnc2c1` [compound 176, 4-(1-benzofuran-2-yl)-N-(4-((7-(methyloxy)-1,5-naphthyridin-4-yl)oxy)phenyl)-1-phthalazinamine], the IC50 on AuroraA-TPX2 turned out to be 0.007 µM; at AuroraB, 0.002 µM.

With `COc1cnc2c(Oc3ccc(Nc4nnc(-c5ccc(C(N)=O)cc5)c5ccccc45)cc3)ccnc2c1` [compound 177, 4-(4-((4-((7-(methyloxy)-1,5-naphthyridin-4-yl)oxy)phenyl)amino)-1-phthalazinyl)benzamide], the IC50 at AuroraA-TPX2 amounted to 0.206 µM; at AuroraB, 0.004 µM.

As to `COc1cnc2c(Oc3ccc(Nc4nnc(-c5ccc(C)nc5F)c5ccccc45)cc3)ccnc2c1` [compound 178, 4-(2-fluoro-6-methyl-3-pyridinyl)-N-(4-((7-(methyloxy)-1,5-naphthyridin-4-yl)oxy)phenyl)-1-phthalazinamine], the figures for the IC50 at AuroraA-TPX2 and at AuroraB were 0.035 µM and 0.002 µM, respectively.

On to `O=C(Nc1cc(Oc2ccc(Nc3nnc(-c4ccccc4)c4ccccc34)cc2F)ccn1)N1CCOCC1` [compound 179, N-(4-((2-fluoro-4-((4-phenyl-1-phthalazinyl)amino)phenyl)oxy)-2-pyridinyl)-4-morpholinecarboxamide], for which the IC50 at AuroraA-TPX2 is 0.18 µM; at AuroraB it was 0.043 µM.

Regarding `COc1cnc2c(Oc3ccc(Nc4nnc(-c5ccc(F)c(OC)c5)c5ccccc45)cc3)ccnc2c1` [compound 180, 4-(4-fluoro-3-(methyloxy)phenyl)-N-(4-((7-(methyloxy)-1,5-naphthyridin-4-yl)oxy)phenyl)-1-phthalazinamine], the values for the IC50 at AuroraA-TPX2 and on AuroraB were 0.027 µM and 0.004 µM, respectively.

On to `COc1cnc2c(Oc3ccc(Nc4nnc(-c5ccc(C#N)cc5)c5ccccc45)cc3)ccnc2c1` [compound 181, 4-(4-((4-((7-(methyloxy)-1,5-naphthyridin-4-yl)oxy)phenyl)amino)-1-phthalazinyl)benzonitrile], for which the IC50 was 0.171 µM at AuroraA-TPX2 and 0.007 µM on AuroraB.

For `COc1cnc2c(Oc3ccc(Nc4nnc(-c5cnc6ccccc6c5)c5ccccc45)cc3)ccnc2c1` [compound 182, N-(4-((7-(methyloxy)-1,5-naphthyridin-4-yl)oxy)phenyl)-4-(3-quinolinyl)-1-phthalazinamine], the IC50 came out at 0.023 µM at AuroraA-TPX2 and 0.002 µM at AuroraB.

As to `COc1cnc2c(Oc3ccc(Nc4nnc(-c5cccc6[nH]ccc56)c5ccccc45)cc3)ccnc2c1` [compound 183, 4-(1H-indol-4-yl)-N-(4-((7-(methyloxy)-1,5-naphthyridin-4-yl)oxy)phenyl)-1-phthalazinamine], the IC50 on AuroraA-TPX2 was found to be 0.033 µM; at AuroraB, 0.003 µM.

Consider `Cc1ccsc1-c1nnc(Nc2ccc(Oc3ccnc4cc(C#N)ccc34)cc2)c2ccccc12` [compound 184, 4-((4-((4-(3-methyl-2-thienyl)-1-phthalazinyl)amino)phenyl)oxy)-7-quinolinecarbonitrile], for which the IC50 at AuroraA-TPX2 amounted to 0.201 µM; at AuroraB, 0.003 µM.

As for `COc1cnc2c(Oc3ccc(Nc4nnc(-c5sccc5C)c5ccccc45)cc3)ccnc2c1` [compound 185, N-(4-((7-(methyloxy)-1,5-naphthyridin-4-yl)oxy)phenyl)-4-(3-methyl-2-thienyl)-1-phthalazinamine], the IC50 at AuroraA-TPX2 worked out at 0.231 µM; at AuroraB, 0.006 µM.

These data come from patent US8557816B2, “Aurora kinase modulators and method of use” (Amgen Inc., priority 2007, dated 2013).
